The values that follow come from patent publication US8895568B2, “Compositions comprising substituted pteridines as agrochemicals” (Dow AgroSciences LLC, priority 2009, dated 2014).

SMILES strings stand for the structures. Where two headings read alike, the source gives them in different places.

Common to all, as to format: in vivo
One experiment relates to Cochliobolus sativus. In words: Spot Blotch of Wheat (COCHSA), foliar spray, percent disease control. The settings on record: Bipolaris sorokiniana, read-out: COCHSA percent control.
For another experiment, the system named is Colletotricum lagenarium. The experiment in a line: Cucumber Anthracnose (COLLLA), foliar spray, percent disease control. On the procedure:
The activity of the compounds as effective fungicides was determined by applying the compounds to plants and observing control of fungal disease. The compounds were formulated at 200 ppm in 10 vol. % acetone plus 90 vol. % Triton X water (deionized water 99.99 wt %+0.01 wt % Triton X100), giving a “formulated test compound.” In a few cases, compounds were formulated at 75 or 8.3 ppm rather than 200 ppm in 10 vol. % acetone plus 90 vol. % Triton X water (deionized water 99.99 wt. %+0.01 wt. % Triton X100), giving a “formulated test compound.” Formulated test compounds were applied to plants using a turn table sprayer fitted with two opposing air atomization nozzles which delivered approximately 1500 L/ha of spray volume. All plants were inoculated with spores of the fungus the day after treatment, then incubated in an environment conducive to disease development. Disease severity was evaluated 4 to 15 days later, depending on the disease and the speed of disease development. The following experiments were performed in the laboratory to determine the fungicidal efficacy of the compounds of the invention. Cucumber Anthracnose (causal agent Colletotricum lagenarium; Bayer code COLLLA): Cucumber plants (variety Bush Champion) were grown from seed in a soil-less peat-based potting mixture (Metromix) until the first true leaf was 20-80% expanded. Each pot contained 1 seedling. These plants were sprayed until wet with the formulated test compound. On the following day, the leaves were inoculated with an aqueous spore suspension of Colletotricum lagenarium and the plants were kept in high humidity for one day to permit spores to germinate and infect the leaf. The plants were then transferred to a growth chamber until disease developed on untreated control plants. […] The effectiveness of the test compounds at controlling disease when sprayed on leaves was determined by assessing the severity of disease on treated plants, then converting the severity to percent control based on the level of disease on untreated, inoculated plants. Data are the level (in percent) at which the given disease was controlled when the given compound was applied to the foliage of the plants at 200 ppm. In a few cases (noted in the table) the compound was applied to the plants at 75 ppm or 8.3 ppm.

Experiment [1] has as its system Pseudoperonospora cubensis. The experiment in a line: Cucumber Downy Mildew (PSPECU), foliar spray, percent disease control. The settings on record: read-out: PSPECU percent control. On the procedure: The activity of the compounds as effective fungicides was determined by applying the compounds to plants and observing control of fungal disease. The compounds were formulated at 200 ppm in 10 vol. % acetone plus 90 vol. % Triton X water (deionized water 99.99 wt %+0.01 wt % Triton X100), giving a “formulated test compound.” In a few cases, compounds were formulated at 75 or 8.3 ppm rather than 200 ppm in 10 vol. % acetone plus 90 vol. % Triton X water (deionized water 99.99 wt. %+0.01 wt. % Triton X100), giving a “formulated test compound.” Formulated test compounds were applied to plants using a turn table sprayer fitted with two opposing air atomization nozzles which delivered approximately 1500 L/ha of spray volume. All plants were inoculated with spores of the fungus the day after treatment, then incubated in an environment conducive to disease development. Disease severity was evaluated 4 to 15 days later, depending on the disease and the speed of disease development. The following experiments were performed in the laboratory to determine the fungicidal efficacy of the compounds of the invention. Cucumber Downy Mildew (causal agent Pseudoperonospora cubensis; Bayer code […]): Cucumber plants (variety Bush Champion) were grown from seed in a soil-less peat-based potting mixture (Metromix) until the first true leaf was 20-80% expanded. Each pot contained 1 seedling. These plants were sprayed until wet with the formulated test compound. On the following day, the leaves were inoculated with an aqueous suspension of downy mildew sporangia and the plants were kept in high humidity for one day to permit sporangia to germinate and infect the leaf. The plants were then incubated in a growth chamber until disease developed on untreated control plants. […] The effectiveness of the test compounds at controlling disease when sprayed on leaves was determined by assessing the severity of disease on treated plants, then converting the severity to percent control based on the level of disease on untreated, inoculated plants. Data are the level (in percent) at which the given disease was controlled when the given compound was applied to the foliage of the plants at 200 ppm. In a few cases (noted in the table) the compound was applied to the plants at 75 ppm or 8.3 ppm.

`Clc1nccc(Oc2ccc(CCNc3ncnc4nccnc34)cc2)n1` [Compound 24]: the pest or weed control at 200 µg/mL fell in the range of 0 to 49% with Cochliobolus sativus (foliar), 50 to 79% with Colletotricum lagenarium (foliar) and 80 to 100% in experiment [1] (foliar).
With `COc1cc(CCNc2ncnc3nccnc23)cc(OC)c1O` [Compound 181], the pest or weed control at 200 µg/mL (with Cochliobolus sativus (foliar); in the experiment on Colletotricum lagenarium (foliar); in experiment [1] (foliar)) was 0 to 49% in each case.
For the molecule `CC(C)(C)c1cc[n+]([O-])c(Oc2ccc(CCNc3ncnc4nccnc34)cc2)c1` [Compound 172, {2-[4-(4-tert-Butyl-1-oxypyridin-2-yloxy)-phenyl]-ethyl}-pteridin-4-ylamine], the pest or weed control at 200 µg/mL fell in the range of 0 to 49% in the experiment on Cochliobolus sativus (foliar), 0 to 49% in the experiment on Colletotricum lagenarium (foliar) and 80 to 100% in experiment [1] (foliar).
Consider `Cc1nc2ncnc(NCCc3ccc(O)cc3)c2nc1C` [Compound 161], for which the pest or weed control at 200 µg/mL (in the experiment with Cochliobolus sativus (foliar); in the experiment with Colletotricum lagenarium (foliar); in experiment [1] (foliar)) was 0 to 49% each time.
As to `Cc1cc(Oc2cc(C(F)(F)F)ccn2)ccc1OCCNc1ncnc2nccnc12` [Compound 201], the pest or weed control at 200 µg/mL was in the range of 0 to 49% with Cochliobolus sativus (foliar spray), 0 to 49% in the experiment on Colletotricum lagenarium (foliar spray) and 80 to 100% in experiment [1] (foliar spray).
On to `CC(C)(C)c1ccnc(Oc2ccc(CCNc3ncnc4nccnc34)cc2)c1` [Compound 207, {2-[4-(4-tert-Butylpyridin-2-yloxy)-phenyl]-ethyl}-pteridin-4-ylamine], for which the pest or weed control at 200 µg/mL in the experiment with Cochliobolus sativus (foliar spray) is 0 to 49%; in the experiment with Colletotricum lagenarium (foliar spray), 0 to 49%; in experiment [1] (foliar spray), 80 to 100%.
`CC(C)(C)COC(=O)c1ccnc(Oc2ccc(CCNc3ncnc4nccnc34)cc2)c1` [Compound 182]: the figures for the pest or weed control at 200 µg/mL (in the experiment on Cochliobolus sativus (foliar); in the experiment with Colletotricum lagenarium (foliar); in experiment [1] (foliar)) were 0 to 49%, 0 to 49% and 80 to 100%, respectively.
With `COc1ccnc(Oc2ccc(CCNc3ncnc4nccnc34)cc2)n1` [Compound 16], the pest or weed control at 200 µg/mL was 0 to 49% with Cochliobolus sativus (foliar), 0 to 49% with Colletotricum lagenarium (foliar) and 80 to 100% in experiment [1] (foliar).
Regarding `COc1ccc(CCNc2ncnc3nccnc23)cc1Br` [Compound 210], the pest or weed control at 200 µg/mL lay within 0 to 49% in the experiment on Cochliobolus sativus (foliar spray), 0 to 49% with Colletotricum lagenarium (foliar spray) and 80 to 100% in experiment [1] (foliar spray).
With `COc1cc(C(C)(F)F)cc(Oc2ccc(CCNc3ncnc4nccnc34)cc2)n1` [Compound 191, (2-{4-[4-(1,1-Difluoroethyl)-6-methoxypyridin-2-yloxy]-phenyl}-ethyl)-pteridin-4-yl-amine], the pest or weed control at 200 µg/mL fell in the range of 0 to 49% in the experiment on Cochliobolus sativus (foliar), 50 to 79% in the experiment with Colletotricum lagenarium (foliar) and 80 to 100% in experiment [1] (foliar).
In the case of `COc1cc(CCNc2ncnc3nccnc23)ccc1O` [Compound 37], the pest or weed control at 200 µg/mL (with Cochliobolus sativus (foliar); in the experiment with Colletotricum lagenarium (foliar); in experiment [1] (foliar)) was 0 to 49% each time.
Take `O=C(c1ccnc(Oc2ccc(CCNc3ncnc4nccnc34)cc2)c1)C1CC1` [Compound 64]: the pest or weed control at 200 µg/mL fell in the range of 0 to 49% in the experiment with Cochliobolus sativus (foliar), 0 to 49% in the experiment on Colletotricum lagenarium (foliar) and 80 to 100% in experiment [1] (foliar).
For `FC(F)(F)c1ccnc(Oc2ccc(CCNc3ncnc4nccnc34)cc2)n1` [Compound 3], the pest or weed control at 200 µg/mL in the experiment on Cochliobolus sativus (foliar) is 0 to 49%; with Colletotricum lagenarium (foliar), 50 to 79%; in experiment [1] (foliar), 80 to 100%.
The like results for `Fc1cccc(Oc2ccc(OCCNc3ncnc4nccnc34)cc2)n1` [Compound 159] were, in that order, 0 to 49%, 0 to 49% and 80 to 100%.
For `Cc1cc(C(F)(F)F)cc(Oc2ccc(CCNc3ncnc4nccnc34)cc2)n1` [Compound 69], the pest or weed control at 200 µg/mL fell in the range of 0 to 49% in the experiment with Cochliobolus sativus (foliar), 80 to 100% with Colletotricum lagenarium (foliar) and 80 to 100% in experiment [1] (foliar).
For the molecule `COc1cc(C(F)(F)F)cc(Oc2ccc(OCCNc3ncnc4nccnc34)cc2)n1` [Compound 168], the pest or weed control at 200 µg/mL (in the experiment on Cochliobolus sativus (foliar); in the experiment on Colletotricum lagenarium (foliar); in experiment [1] (foliar)) was 0 to 49% each time.
`COC(=O)c1ccnc(Oc2ccc(CCNc3ncnc4nccnc34)cc2)c1` [Compound 135]: the pest or weed control at 200 µg/mL fell in the range of 0 to 49% in the experiment with Cochliobolus sativus (foliar), 0 to 49% in the experiment on Colletotricum lagenarium (foliar) and 80 to 100% in experiment [1] (foliar).
Regarding `O=Cc1cc(Cl)cnc1Oc1ccc(CCNc2ncnc3nccnc23)cc1` [Compound 102], the pest or weed control at 200 µg/mL in the experiment on Cochliobolus sativus (foliar) was 0 to 49%; in the experiment on Colletotricum lagenarium (foliar), 0 to 49%; in experiment [1] (foliar), 80 to 100%.
For the molecule `N#Cc1ccnc(Oc2ccc(OCCNc3ncnc4nccnc34)cc2)c1` [Compound 85], the pest or weed control at 200 µg/mL with Cochliobolus sativus (foliar) is 0 to 49%; in the experiment with Colletotricum lagenarium (foliar) it was 0 to 49%; in experiment [1] (foliar), 80 to 100%.
As for `Cc1cc(CCNc2ncnc3nccnc23)ccc1O` [Compound 174], the pest or weed control at 200 µg/mL (in the experiment on Cochliobolus sativus (foliar); in the experiment on Colletotricum lagenarium (foliar); in experiment [1] (foliar)) was 0 to 49% each time.
In the case of `FC(F)(F)c1ccnc(Oc2ccc(OCCNc3ncnc4nccnc34)cc2)c1` [Compound 83], the pest or weed control at 200 µg/mL in the experiment with Cochliobolus sativus (foliar) fell in the range of 0 to 49%; in the experiment with Colletotricum lagenarium (foliar), 80 to 100%; in experiment [1] (foliar), 80 to 100%.
As for `CC(Sc1ncnc2nccnc12)c1ccc(C#N)cc1` (stereo not drawn) [Compound 78], the pest or weed control at 200 µg/mL (in the experiment with Cochliobolus sativus (foliar); with Colletotricum lagenarium (foliar); in experiment [1] (foliar)) was 0 to 49% throughout.
On to `COc1ccc(C(C)Nc2ncnc3nccnc23)cc1` (stereo not drawn) [Compound 17], for which the pest or weed control at 200 µg/mL in the experiment on Cochliobolus sativus (foliar) fell in the range of 0 to 49%; in the experiment on Colletotricum lagenarium (foliar), 50 to 79%; in experiment [1] (foliar) it was 80 to 100%.
The like results for `CCOC(=O)c1ccnc(Oc2ccc(CCNc3ncnc4nccnc34)cc2)c1` [Compound 183] were, in that order, 0 to 49%, 0 to 49% and 80 to 100%.
Take `Fc1cnc(C(F)(F)F)c(F)c1Oc1cccc(CCNc2ncnc3nccnc23)c1` [Compound 71]: the pest or weed control at 200 µg/mL (in the experiment with Cochliobolus sativus (foliar); in the experiment with Colletotricum lagenarium (foliar); in experiment [1] (foliar)) was 0 to 49% throughout.
In the case of `CC(C)Oc1cc(CCNc2ncnc3nccnc23)ccc1Oc1cc(C(C)(F)F)ccn1` [Compound 195], the pest or weed control at 200 µg/mL in the experiment with Cochliobolus sativus (foliar) lay in the range of 0 to 49%; with Colletotricum lagenarium (foliar), 50 to 79%; in experiment [1] (foliar), 80 to 100%.
Take `CC(C)OC(=O)c1ccnc(Oc2ccc(CCNc3ncnc4nccnc34)cc2)c1` [Compound 173]: the pest or weed control at 200 µg/mL is 0 to 49% in the experiment with Cochliobolus sativus (foliar), 0 to 49% in the experiment with Colletotricum lagenarium (foliar) and 80 to 100% in experiment [1] (foliar).
Turning to `COc1cc(CCNc2ncnc3nccnc23)cc(OC)c1Oc1cc(C(F)(F)F)ccn1` [Compound 186], the pest or weed control at 200 µg/mL with Cochliobolus sativus (foliar) was in the range of 0 to 49%; with Colletotricum lagenarium (foliar) it was 0 to 49%; in experiment [1] (foliar), 80 to 100%.
As to `COc1cc(C(F)(F)F)cc(Oc2ccc(CCNc3ncnc4nccnc34)cc2C)n1` [Compound 167], the results for the pest or weed control at 200 µg/mL (in the experiment on Cochliobolus sativus (foliar); with Colletotricum lagenarium (foliar); in experiment [1] (foliar)) were 0 to 49%, 0 to 49% and 80 to 100%, respectively.
